# Laboratory results taken from patent US20050192262A1, “Treatment of tumours” (priority 2001, published 2005).
# Read-outs that look alike come from different tables or passages of the source.
# How the values were obtained:
# [1] = system: VEGF; assay: Immunostaining of tumour sections against VEGF; format: in vivo, rat; settings: Animals II
# Protocol: Working dilution 1:100. As negative control antibody a mouse IgG, clone DAK-GO1, kappa, ×931, Dako, was used with a working dilution of 1:50.
# (§1) The animal experiment described above was repeated.
# (§2) Group 1 received a single dose of 10 mg 17α-AED sc. near tumour.
# (§3) Group 2 received a single dose of 80 mg 17β-AED in the same way.
# (§4) Group 3 received a single dose of 25 mg 17α OH-pregnenolone in the same way.
# (§5) Group 4 received a single dose of 7.5 mg 5-androstene-3β,7β,17α-triol.
# [2] = system: cyclin D1; assay: Western blotting of Dunning AT-1 rat prostate tumours; format: in vivo; settings: Animals II; exposure 80 hours in all arms
# Protocol: as §1, §2, §3, §4, §5
# Protein content of homogenates were determined by Lowry assay.
# [3] = system: β-catenin; assay: as above; format: in vivo; settings: Animals II; exposure 80 hours in all arms
# Protocol: as §1
# Thawed rat tumours from both experiments above were homogenized in ice cold lysis-buffer. (160 mM NaCl, 10 mM HEPES, 2 mM CaCl2, 5% SDS, 0.5% Triton X-100, 100 μg/ml phenyl-metylsulfonyl fluoride, 1 μg/ml leupeptin and 2 μg/ml aprotinin), placed on ice for 15 minutes and following clarification centrifuged for 10 minutes at 13,000 g. Protein content of homogenates were determined by Lowry assay.
# Protein in lysates (90 μg) were separated by electrophoresis using 8% SDS-PAGE and separated proteins were transferred onto a nitrocellulose membrane (Amersham) in trans-blot electrophoretic transfer cell (Bio-Rad Laboratories).
# After washing in TTBS the blots were reincubated with horseradish peroxidase conjugated secondary antibody (anti-goat antibodies 2020, Santa Cruz) diluted 1:4000 in TTBS containing 3% (w/v) non-fat, dried milk for one hour. Blots were developed using an enhanced chemiluminescence system (ECL, Amersham) and exposed to Hyperfilm ECL (Amersham). Optical density was measured densitometrically.
# The blots were striped and rehybridized with antibodies against β-catenin (C-18, sc. 1496) and COX-2 (C-20, sc 1745) antibodies.
# In the second animal experiment tumours were investigated for expression of β-catenin, COX-2 and cyclin D1 (A-12, sc. 8396).
# [4] = target: T1, PPARγ (Mus musculus, UniProt P37238); assay: Ligand-induced coactivator interaction assay (GST-PPARγ / SRC-1); format: biochemical; settings: for PPARγ-ligand activity, steroid + liver cytosol + PAPS / PPARγ-ligand activity, native steroid + liver cytosol: second experiment; for PPARγ-ligand activity, steroid + liver cytosol + PAPS: active liver cytosol, sulfate formed in situ; for PPARγ-ligand activity, native steroid + liver cytosol: without PAPS
# T1 construct: made in house; host or cells: E. coli strain Y 1090 (GST-PPARγ); TNT Coupled Reticulocyte Lysate System, Promega (SRC-1)
# Protocol: ApcDNA3-SRC-1 construct was used as template to prepare (^35S-methionine)-SRC-1 by in vitro transcription and translation using the TNT® Coupled Reticulocyte Lysate System (Promega).
# Ligand-induced interactions between GST-PPARγ and SRC-1: To generate GST-PPARγ fusion protein, mouse PPARγcDNA was inserted into the NcoI-HindIII sites of pGEX-KG, and protein was then expressed in E. coli, strain Y 1090. The bacteria were lysed by sonication in TEDG buffer (50 mM Tris (pH 7.4), 1.5 mM EDTA, 10% glycerol, 0.4 M NaCl, 0.1 mM DTT) containing the following protease inhibitors: 0.5 mM PMSF, 1 mM benzamidine, 10 μg/ml leupeptin, 10 μg/ml antipain and […] aprotinin. The lysates were centrifuged at 100,000×g for 60 min in a SW 41 rotor using a Beckman L8-70 M ultracentrifuge. The fusion protein was immobilized on GSH Sepharose beads (Pharmacia) and then incubated with potential ligands in (FIG. 5) 10 mM Tris (pH7.4), 0.12 M KCl, 8% glycerol, 4 mM DTT, and 0.5% CHAPS (buffer AA) for 30 min at room temperature. Thereafter, (^35S methionine) SRC-1 (ca 0.1 μCi) was added, and the beads were incubated for another hour at 4° C. and then washed extensively with buffer A. SDS sample buffer was added to the beads, and the samples boiled prior to separation on 7.5% SDS-PAGE. Radioactivity was detected by autoradiography.
# α- and β-AED were investigated in above assay for PPARγ ligand activity in 10 and 100 μM solutions in ethanol 10%, in distilled water. 10 μL aliquots of α-AED-solution or β-AED-solution were also added to a preparation of a male rat liver cytosolic preparation prepared as follows:
# A homogenate of a rat liver, a known source of steroid sulphotransferase activity, was prepared using a food processor. The liver homogenate was protected from serine-proteases by the addition of 2 mmol of PMSF, 1 mmol of EDTA and 10 mmol Tris-HCl buffered to a pH of 7.40. The homogenate was prepared at 4° C. and then centrifuged at 15000 g for 10 minutes, followed by centrifugation at 100000 g for an hour at 4° C. The supernatant was divided into test tubes containing one of the following steroids: 17β-AED or 17α-AED in 5 μM concentration together with 100 μL of liver cytosol. One test tube served as positive control and contained SCR-1.
# In a second experiment the following steroids were tested for activity: 17α-AED, 17OH-pregnenolone and 5-androstene-3β,7β,17α-triol with and without 10 μL of […] (PAPS), Sigma Chemicals, corresponding to 0.1 mg of PAPS. One test tube served as a positive control and contained SRC-1 Instead of steroid. One test tube contained liver cytosol where the steroid sulphotransferase was inactivated by heating to 45° C. for 30 minutes. Tubes were stirred at 20° C. for 1 hour and the contents were investigated in the receptor-coactivator assay for ligand activity (FIG. 5).
# 17α-AED was treated in the method described by Arnostova, Libuse M.; Pouzar, Vladimir; Drasar, Pavel. Inst. Org. Chem. Biochem., Czech. Acad. Sci., Prague, Czech. Synth. Commun. (1990), 20(10), 1521-9, where acetate is used as protection group and pyridine —SO3 complex as the sulfating agent. Deprotection with an excess of 0.8M NaOH in MeOH-water provides the desired hydroxy sulfate, which is investigated, for PPARγ-activity in the ligand-activated-coactivator receptor assay described above.
# [5] = system: Dunning R 3327, AT-1, rat prostatic tumour; assay: Tumour growth after s.c. injection near tumour; format: in vivo; settings: Animals II; single s.c. injection in the proximity of the tumour
# Protocol: as §1, §2, §3, §4, §5
# A fifth group served as tumour bearing controls.
# [6] = system: PPARγ; assay: Western blotting cell lines; format: cell-based, human
# Description: (§6) Protein blotting was repeated for DU-145 and PC-3 cell lines, which were also investigated for expression of PPARδ through antibody (H-74, sc 7197).
# [7] = system: PPARδ; assay: Western blotting cell lines; format: cell-based, human; settings: PC-3 and DU-145
# Description: as §6
# [8] = system: SKBR-3; assay: Facscan viability (chlorofluoresceindiacetate / propidiumiodide); format: cell-based, human; settings: 200 nM 17α-AED + rat liver cytosol + PAPS, Herceptin 1:150, 72 hours
# Protocol: (§7) Effects of HER-2 and 17α-AED-3β-sulfate in breast and prostate cancer cell lines. Cell cultures of prostate cancer cell lines PC-3 and DU-145 as well as mammary cancer cell lines MCF-7 and SKBR-3 were grown in flasks as previously described in the presence or absence of a 200 nM 17α-AED. Cultures containing 17α-AED were further subdivided and these cultures were grown in the presence or absence of Herceptin®, her-2 antibodies, using a stem solution of 1 mg/ml which was further diluted, making the final concentration 1:150 In the cell suspension.
# (§8) Representations of each cell line containing no steroid were also treated with herceptin as above. For each cell line and variation of treatment 3 different culture flasks were used.
# (§9) Further, a mixture of 100 μL rat liver cytosol and 20 μL of 3′-phosphoadenosine-5′-phosphosulphate (PAPS), corresponding to approximately 0.16 mg of PAPS was shared between and added to cultures containing 17α-AED.
# (§10) Finally, for each cell line three samples were kept as untreated controls.
# (§11) To estimate the number of viable cells a solution of chlorofluoresceindiacetate was added to the cultures on the last day of culture. This chemical penetrates freely into cells, but is metabolized in the living cell into a form with green fluorescence unable to leave the cell. As counterstaining, to detect dead cells, propidiumiodide, giving a red fluorescence, was added 15 minutes before analyzing the samples in a Facscan. Time for 10000 cells to pass the detector in the Facscan was estimated in order to detect a possible growth inhibitory effect, not resulting in an increased number of dead cells.
# [9] = system: PC-3; assay: as above; format: cell-based, human; settings: 200 nM 17α-AED + rat liver cytosol + PAPS, Herceptin 1:150, 72 hours
# Protocol: as §7, §8, §9, §10, §11
# [10] = system: MCF-7; assay: as above; format: cell-based, human; settings: 200 nM 17α-AED + rat liver cytosol + PAPS, Herceptin 1:150, 72 hours
# Protocol: as §7, §8, §9, §10, §11
# [11] = system: DU-145; assay: as above; format: cell-based, human; settings: 200 nM 17α-AED + rat liver cytosol + PAPS, Herceptin 1:150, 72 hours
# Protocol: as §7, §8, §9, §10, §11
# T1 sequence (P37238 whole entry): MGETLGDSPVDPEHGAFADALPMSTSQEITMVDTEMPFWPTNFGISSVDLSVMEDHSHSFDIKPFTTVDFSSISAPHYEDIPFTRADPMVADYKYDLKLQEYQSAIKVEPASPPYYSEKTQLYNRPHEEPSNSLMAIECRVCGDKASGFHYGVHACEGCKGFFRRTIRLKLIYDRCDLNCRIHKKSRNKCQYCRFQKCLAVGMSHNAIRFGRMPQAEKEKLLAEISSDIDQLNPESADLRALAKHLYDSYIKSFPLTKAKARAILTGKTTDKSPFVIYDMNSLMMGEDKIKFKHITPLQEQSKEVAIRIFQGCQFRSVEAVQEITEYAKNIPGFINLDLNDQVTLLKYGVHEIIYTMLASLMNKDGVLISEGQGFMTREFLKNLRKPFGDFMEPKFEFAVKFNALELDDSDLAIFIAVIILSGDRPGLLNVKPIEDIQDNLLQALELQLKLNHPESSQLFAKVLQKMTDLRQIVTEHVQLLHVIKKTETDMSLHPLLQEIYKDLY
# T1 sequence (Q15788 whole entry partner): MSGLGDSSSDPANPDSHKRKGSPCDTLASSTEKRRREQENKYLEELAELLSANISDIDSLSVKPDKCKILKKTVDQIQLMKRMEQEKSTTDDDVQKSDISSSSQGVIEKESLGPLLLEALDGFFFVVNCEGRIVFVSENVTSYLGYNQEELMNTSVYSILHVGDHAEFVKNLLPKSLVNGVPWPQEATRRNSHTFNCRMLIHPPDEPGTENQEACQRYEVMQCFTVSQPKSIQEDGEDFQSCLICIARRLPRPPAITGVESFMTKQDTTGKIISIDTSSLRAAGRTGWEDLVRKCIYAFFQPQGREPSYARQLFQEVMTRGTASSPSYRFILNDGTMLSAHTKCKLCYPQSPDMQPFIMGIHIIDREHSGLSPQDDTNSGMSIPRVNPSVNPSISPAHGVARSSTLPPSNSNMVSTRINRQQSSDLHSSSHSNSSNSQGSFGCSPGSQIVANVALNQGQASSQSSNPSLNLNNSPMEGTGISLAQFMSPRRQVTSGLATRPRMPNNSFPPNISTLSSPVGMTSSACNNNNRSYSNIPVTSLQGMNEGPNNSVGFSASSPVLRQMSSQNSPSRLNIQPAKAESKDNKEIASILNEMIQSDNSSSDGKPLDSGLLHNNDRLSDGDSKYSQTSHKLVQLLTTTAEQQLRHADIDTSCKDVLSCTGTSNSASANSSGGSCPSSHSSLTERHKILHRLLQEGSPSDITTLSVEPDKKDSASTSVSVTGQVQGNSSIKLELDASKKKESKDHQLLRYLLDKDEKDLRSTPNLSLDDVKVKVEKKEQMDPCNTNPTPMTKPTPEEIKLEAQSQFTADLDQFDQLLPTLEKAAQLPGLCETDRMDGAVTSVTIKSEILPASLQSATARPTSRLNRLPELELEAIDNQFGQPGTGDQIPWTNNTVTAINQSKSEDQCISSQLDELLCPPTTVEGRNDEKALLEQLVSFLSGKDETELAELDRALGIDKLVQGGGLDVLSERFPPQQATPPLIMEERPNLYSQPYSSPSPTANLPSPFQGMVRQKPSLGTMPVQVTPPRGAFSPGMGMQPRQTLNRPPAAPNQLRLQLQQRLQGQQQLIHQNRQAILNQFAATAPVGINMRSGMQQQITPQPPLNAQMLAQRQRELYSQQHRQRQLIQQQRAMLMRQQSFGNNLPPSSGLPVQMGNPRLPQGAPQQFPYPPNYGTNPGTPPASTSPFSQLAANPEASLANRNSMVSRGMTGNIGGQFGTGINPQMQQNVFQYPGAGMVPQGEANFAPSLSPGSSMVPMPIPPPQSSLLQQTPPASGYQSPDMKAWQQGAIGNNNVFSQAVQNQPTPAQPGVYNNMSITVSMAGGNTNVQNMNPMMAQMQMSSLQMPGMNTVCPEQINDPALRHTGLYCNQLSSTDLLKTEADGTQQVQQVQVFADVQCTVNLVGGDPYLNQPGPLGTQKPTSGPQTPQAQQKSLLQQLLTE
SMILES,staining for VEGF [1],expression of cyclin D1 [2],expression of β-catenin [3],"PPARγ-ligand activity, steroid + liver cytosol + PAPS [4]","PPARγ-ligand activity, native steroid + liver cytosol [4]",tumour volumes [5] [%],"expression of PPARγ ([6]; DU-145, 100 nM, repeated experiment)","PPARγ expression ([6]; PC-3 cells, 100 nM, repeated experiment)","expression of PPARγ ([6]; both cell lines (PC-3, DU-145))",expression of PPARδ [7],dead [8] [%],viable [8] [%],dead [9] [%],viable [9] [%],dead [10] [%],viable [10] [%],dead [11] [%],viable [11] [%],PPARγ-ligand activity of the 3β-sulfate [4],PPARγ-ligand activity of the 3β-sulfate ([4]; listed as 5-androstene-17α-ol-3β-sulfate)
"C[C@]12CC[C@H]3[C@@H]([C@@H](O)C=C4C[C@@H](O)CC[C@@]43C)[C@@H]1CC[C@H]2O [5-androstene-3β,7β,17α-triol, 3β,7β,17α-trihydroxy-androst-5-en]","almost complete disappearance of detectable VEGF In tumours in 2 cases, a modest downregulation in 1 and unchanged appearance in 1",down-regulation,down-regulation,insignificant responses,insignificant responses,–,–,–,–,–,–,–,–,–,–,–,–,–,–,–
"CC(=O)[C@@]1(O)CC[C@H]2[C@@H]3CC=C4C[C@@H](O)CC[C@]4(C)[C@H]3CC[C@@]21C [17αOH-pregnenolone, 17-hydroxy-pregnenolone (17α-OH)]",almost complete disappearance of staining for VEGF,"same pattern, but even more marked","same pattern, but even more marked",insignificant responses,insignificant responses,~−50,–,–,–,–,–,–,–,–,–,–,–,–,–,–
"C[C@]12CC[C@H]3[C@@H](CC=C4C[C@@H](OS(=O)(=O)O)CC[C@@]43C)[C@@H]1CC[C@H]2O [17α-AED-3βsulfate, 5-androstene-17α-ol-3β-sulfate]",–,–,–,–,–,–,Expression of PPARγ was observed,increased,increased the expression of PPARγ significantly,no effect,21,66,12,81,15,75,18,70,shows PPARγ-activity,only sample demonstrating PPARγ-ligand activity
